Assay results taken from PubChem BioAssay AID1259408 (Genetic Toxicology Data Bank (GENE-TOX), 2018).
Active and inactive are the calls of the source. No rule for the calls is given here.

Tested on: GENE-TOX genotoxicity assays, various organisms and cells
Assay: GENE-TOX mutagenicity studies
Settings: for call: Assay Type: In vivo carcinogenicity studies
[1] = Species/Cell Type: Drosophila melanogaster, Assay Type: Aneuploidy, whole sex chromosome loss, chromosome aberrations, Assay Code: DAC-M, Evaluation Type: Evaluation A (Pre-1980)
[2] = Species/Cell Type: Nonhuman, Assay Code: CCG+, Evaluation Type: Evaluation A (Pre-1980)
[3] = Species/Cell Type: Salmonella typhimurium (one or more of the five standard strains: TA98, TA100, TA1535, TA1537, and TA1538), Assay Type: Histidine reverse gene mutation, Ames assay, Assay Code: SAL+*, Activation: With metabolic activation, Evaluation Type: Evaluation A (Pre-1980)
[4] = Species/Cell Type: Mammalian polychromatic erythrocytes, Assay Type: Micronucleus test, chromosome aberrations, Assay Code: MNT+, Evaluation Type: Evaluation B (Post-1980)
[5] = Species/Cell Type: Allium cepa, Assay Type: Chromosome aberrations, Assay Code: ALC-, Evaluation Type: Evaluation A (Pre-1980)
[6] = Species/Cell Type: Salmonella typhimurium (one or more of the five standard strains: TA98, TA100, TA1535, TA1537, and TA1538), Assay Type: Histidine reverse gene mutation, Ames assay, Assay Code: SAL+, Evaluation Type: Evaluation A (Pre-1980)

Q: With CCCC(C)(COC(N)=O)COC(N)=O as the molecule, how does the mutagenic call (Species/Cell Type: Drosophila melanogaster, Assay Type: Aneuploidy, partial sex chromosome loss, chromosome aberrations, Assay Code: DAPT, Evaluation Type: Evaluation A (Pre-1980)) read?
A: no conclusion

Q: What about the mutagenic call [1] of the same molecule?
A: inactive; negative

Q: And the mutagenic call (Species/Cell Type: Drosophila melanogaster, Assay Type: Sex-linked recessive lethal gene mutation, Assay Code: SRL-, Evaluation Type: Evaluation A (Pre-1980))?
A: inactive; negative

Q: O=P1(NCCCl)OCCCN1CCCl (stereo not drawn) was tested. Which mutagenic call (Species/Cell Type: Drosophila melanogaster, Assay Type: Aneuploidy, partial sex chromosome loss, chromosome aberrations, Assay Code: DAP-M, Evaluation Type: Evaluation A (Pre-1980)) did it give?
A: inactive; negative

Q: What about the mutagenic call [1] of the same molecule?
A: inactive; negative

Q: What about the mutagenic call (Species/Cell Type: Drosophila melanogaster, Assay Type: Sex-linked recessive lethal gene mutation, Assay Code: SRL+, Evaluation Type: Evaluation A (Pre-1980)) of the same molecule?
A: active; positive

Q: What about the mutagenic call (Species/Cell Type: Mammalian polychromatic erythrocytes, Assay Type: Micronucleus test, chromosome aberrations, Assay Code: MNT+, Evaluation Type: Evaluation A (Pre-1980)) of the same molecule?
A: active; positive

Q: What about the call [2] of the same molecule?
A: active; positive

Q: What about the mutagenic call (Species/Cell Type: Saccharomyces cerevisiae, Assay Type: Forward and reverse gene mutation, mitotic recombination and gene conversion, DNA effects, body fluid assay, Assay Code: BFC+, Evaluation Type: Evaluation A (Pre-1980)) of the same molecule?
A: active; positive

Q: What about the mutagenic call (Species/Cell Type: Saccharomyces cerevisiae, Assay Type: Forward and reverse gene mutation, mitotic recombination and gene conversion, host-mediated assay, Assay Code: HMET, Evaluation Type: Evaluation A (Pre-1980)) of the same molecule?
A: no conclusion

Q: What about the mutagenic call (Species/Cell Type: Saccharomyces cerevisiae, Assay Type: Mitotic recombination or gene conversion, Assay Code: YEC+*, Activation: With metabolic activation, Evaluation Type: Evaluation A (Pre-1980)) of the same molecule?
A: active; positive

Q: And the mutagenic call [3]?
A: active; positive

Q: With Cc1cccc(N(C)C(=S)Oc2ccc3ccccc3c2)c1 as the molecule, how does the mutagenic call (Species/Cell Type: Neurospora crassa, Assay Type: Aneuploidy, chromosome aberrations, Assay Code: NEN-, Evaluation Type: Evaluation A (Pre-1980)) read?
A: inactive; negative

Q: Cc1c(N)nc([C@H](CC(N)=O)NC[C@H](N)C(N)=O)nc1C(=O)N[C@H](C(=O)N[C@H](C)[C@@H](O)[C@H](C)C(=O)N[C@H](C(=O)NCCc1nc(-c2nc(C(=O)NCCC[S+](C)C)cs2)cs1)[C@@H](C)O)[C@@H](OC1OC(CO)C(O)C(O)C1OC1OC(CO)C(O)C(OC(N)=O)C1O)c1cnc[nH]1 (stereo partly drawn) was tested. Which mutagenic call (Species/Cell Type: Chinese hamster ovary (CHO) cells, Assay Type: Forward gene mutation at the HPRT locus, Assay Code: CHO+, Evaluation Type: Evaluation B (Post-1980)) did it give?
A: active; positive

Q: And the mutagenic call (Species/Cell Type: Human bone marrow, Assay Type: Chromosome aberrations in vivo, Assay Code: CY5+, Evaluation Type: Evaluation A (Pre-1980))?
A: active; positive

Q: What about the mutagenic call (Species/Cell Type: Human cell culture, Assay Type: Chromosome aberrations in vitro, Assay Code: CYZ+, Evaluation Type: Evaluation A (Pre-1980)) of the same molecule?
A: active; positive

Q: What about the mutagenic call (Species/Cell Type: Human lymphocytes or leukocytes, Assay Type: Chromosome aberrations in vitro, Assay Code: CY7+D, Dose Response: With dose response, Evaluation Type: Evaluation A (Pre-1980)) of the same molecule?
A: active; positive

Q: And the mutagenic call (Species/Cell Type: Human lymphocytes, Assay Type: Micronucleus test in vitro, chromosome aberrations, Assay Code: MN7+, Evaluation Type: Evaluation A (Pre-1980))?
A: active; positive

Q: And the mutagenic call (Species/Cell Type: Human lymphocytes, Assay Type: Sister-chromatid exchange (SCE) in vitro, Assay Code: SCL+, Evaluation Type: Evaluation B (Post-1980))?
A: active; positive

Q: And the mutagenic call (Species/Cell Type: Human lymphocytes, Assay Type: Sister-chromatid exchange (SCE) in vitro, Assay Code: SCL-, Evaluation Type: Evaluation A (Pre-1980))?
A: inactive; negative

Q: And the mutagenic call (Species/Cell Type: Human, Assay Type: Sister-chromatid exchange (SCE) in vitro, Assay Code: SC1+D, Dose Response: With dose response, Evaluation Type: Evaluation B (Post-1980))?
A: active; positive

Q: And the mutagenic call (Species/Cell Type: Human, Assay Type: Sister-chromatid exchange (SCE) in vitro, Assay Code: SC1-, Evaluation Type: Evaluation A (Pre-1980))?
A: inactive; negative

Q: What about the mutagenic call [4] of the same molecule?
A: active; positive

Q: And the mutagenic call (Species/Cell Type: Mammalian polychromatic erythrocytes, Assay Type: Micronucleus test, chromosome aberrations, Assay Code: MNTT, Evaluation Type: Evaluation A (Pre-1980))?
A: no conclusion

Q: And the mutagenic call (Species/Cell Type: Mouse (C3H/10T1/2) cells, Assay Type: Cell transformation, Assay Code: CTH+, Evaluation Type: Evaluation A (Pre-1980))?
A: active; positive

Q: And the mutagenic call (Species/Cell Type: Nonhuman, Assay Type: Chromosome aberrations in vitro, Assay Code: CY&+, Evaluation Type: Evaluation A (Pre-1980))?
A: active; positive

Q: What about the call (Species/Cell Type: Nonhuman, Assay Code: CCGT, Evaluation Type: Evaluation A (Pre-1980)) of the same molecule?
A: no conclusion

Q: And the mutagenic call (Species/Cell Type: Nonhuman, Assay Type: Sister-chromatid exchange (SCE) in vitro, Assay Code: SC2+D, Dose Response: With dose response, Evaluation Type: Evaluation A (Pre-1980))?
A: active; positive

Q: What about the mutagenic call (Species/Cell Type: Nonhuman, Assay Type: Sister-chromatid exchange (SCE) in vitro, Assay Code: SC2+D, Dose Response: With dose response, Evaluation Type: Evaluation B (Post-1980)) of the same molecule?
A: active; positive

Q: And the mutagenic call (Species/Cell Type: Nonhuman, Assay Type: Sister-chromatid exchange (SCE) in vivo, Assay Code: SC3+D, Dose Response: With dose response, Evaluation Type: Evaluation B (Post-1980))?
A: active; positive

Q: What about the mutagenic call (Species/Cell Type: Saccharomyces cerevisiae, Assay Type: Forward gene mutation, Assay Code: YEF+, Evaluation Type: Evaluation A (Pre-1980)) of the same molecule?
A: active; positive

Q: What about the mutagenic call (Species/Cell Type: Saccharomyces cerevisiae, Assay Type: Mitotic recombination or gene conversion, Assay Code: YEC+, Evaluation Type: Evaluation A (Pre-1980)) of the same molecule?
A: active; positive

Q: And the mutagenic call (Species/Cell Type: Saccharomyces cerevisiae, Assay Type: Mitotic recombination or gene conversion, Assay Code: YEH+, Evaluation Type: Evaluation A (Pre-1980))?
A: active; positive

Q: What about the mutagenic call (Species/Cell Type: Saccharomyces cerevisiae, Assay Type: Reverse gene mutation, Assay Code: YER+, Evaluation Type: Evaluation A (Pre-1980)) of the same molecule?
A: active; positive

Q: And the mutagenic call (Species/Cell Type: Vicia faba, Assay Type: Chromosome aberrations, Assay Code: VIC+, Evaluation Type: Evaluation A (Pre-1980))?
A: active; positive

Q: Which mutagenic call (Species/Cell Type: Salmonella typhimurium (one or more of the five standard strains: TA98, TA100, TA1535, TA1537, and TA1538), Assay Type: Histidine reverse gene mutation, Ames assay, Assay Code: SAL-, Evaluation Type: Evaluation A (Pre-1980)) does the source give for C1CCCCC1 here?
A: inactive; negative

Q: What about the mutagenic call (Species/Cell Type: Syrian hamster embryo (SA7/SHE) cells, Assay Type: Cell transformation, viral enhanced, Assay Code: CT7-, Evaluation Type: Evaluation A (Pre-1980)) of the same molecule?
A: inactive; negative

Q: Which mutagenic call [5] does the source give for O=c1[nH]cnc2nc[nH]c12 here?
A: inactive; negative

Q: What about the mutagenic call (Species/Cell Type: Arabidopsis species, Assay Type: Gene mutation, Assay Code: ARM-, Evaluation Type: Evaluation A (Pre-1980)) of the same molecule?
A: inactive; negative

Q: And the mutagenic call (Species/Cell Type: Nonhuman, Assay Type: Sister-chromatid exchange (SCE) in vitro, Assay Code: SC2T, Evaluation Type: Evaluation B (Post-1980))?
A: no conclusion

Q: With [Cl-].[Cl-].[NH2-].[NH2-].[NH2-].[NH2-].[Pt+2] as the molecule, how does the mutagenic call (Species/Cell Type: Chinese hamster ovary (CHO) cells, Assay Type: Forward gene mutation at the HPRT locus, Assay Code: CHOT, Evaluation Type: Evaluation B (Post-1980)) read?
A: no conclusion

Q: With O=[N+]([O-])c1ccc(C=NCCO)o1 as the molecule, how does the mutagenic call [6] read?
A: active; positive

Q: For O.O.O.O.O.O.[Cl-].[Cl-].[Cl-].[Fe+3], which mutagenic call (Species/Cell Type: Nonhuman, Assay Type: Sister-chromatid exchange (SCE) in vitro, Assay Code: SC2-, Evaluation Type: Evaluation B (Post-1980)) is on record?
A: inactive; negative

Q: Which mutagenic call [4] does the source give for COc1c(OC)c(O)c2c(=O)c(OC)c(-c3ccc(O)c(O)c3)oc2c1OC here?
A: active; positive

Q: For CN(N=O)C(=O)c1ccccc1, which mutagenic call [6] is on record?
A: active; positive

Q: With Cc1c2ccccc2c2ccc3cccc4ccc1c2c43 as the molecule, how does the mutagenic call (Species/Cell Type: Chinese hamster lung (V79) cells, Assay Type: Forward gene mutation at the HPRT or ouabain locus, Assay Code: V79+*, Activation: With metabolic activation, Evaluation Type: Evaluation A (Pre-1980)) read?
A: active; positive

Q: And the call [2]?
A: active; positive

Q: Which mutagenic call (Species/Cell Type: Escherichia coli polA (W3110 vs P3478), Assay Type: Rec-assay, DNA effects (bacterial DNA repair), Assay Code: RE2+, Evaluation Type: Evaluation A (Pre-1980)) does the source give for CC(=O)Nc1ccc2c(c1)Cc1cccc(O)c1-2 here?
A: active; positive

Q: What about the mutagenic call (Species/Cell Type: Escherichia coli polA (W3119 vs P3478), Assay Type: Rec-assay, DNA effects (bacterial DNA repair), Assay Code: RE1T, Evaluation Type: Evaluation A (Pre-1980)) of the same molecule?
A: no conclusion

Q: What about the mutagenic call (Species/Cell Type: Human diploid fibroblasts, Assay Type: Unscheduled DNA synthesis (UDS) in vitro, DNA effects, Assay Code: UDH-, Evaluation Type: Evaluation A (Pre-1980)) of the same molecule?
A: inactive; negative

Q: And the mutagenic call (Species/Cell Type: Saccharomyces cerevisiae, Assay Type: Mitotic recombination or gene conversion, Assay Code: YEH-, Evaluation Type: Evaluation A (Pre-1980))?
A: inactive; negative

Q: What about the mutagenic call [3] of the same molecule?
A: active; positive

Q: Oc1c(Cl)cccc1Cl was tested. Which mutagenic call [5] did it give?
A: inactive; negative

Q: With NC(=O)N(CCCl)N=O as the molecule, how does the mutagenic call (Species/Cell Type: Chinese hamster lung (V79) cells, Assay Type: Forward gene mutation at the HPRT or ouabain locus, Assay Code: V79+, Evaluation Type: Evaluation A (Pre-1980)) read?
A: active; positive

Q: Which mutagenic call [6] does the source give for O=C(O)[C@H]1O[C@@H](N(O)c2ccc(-c3ccccc3)cc2)[C@H](O)[C@@H](O)[C@@H]1O here?
A: active; positive

Q: ClN1CCCCC1 was tested. Which mutagenic call (Species/Cell Type: Mammalian polychromatic erythrocytes, Assay Type: Micronucleus test, chromosome aberrations, Assay Code: MNT-, Evaluation Type: Evaluation B (Post-1980)) did it give?
A: inactive; negative

Q: With O=[N+]([O-])c1ccccc1O as the molecule, how does the mutagenic call [5] read?
A: inactive; negative

Q: With CC(C)(O)CCc1ccc(O)c2c(=O)c3c(O)c4c(cc3oc12)O[C@H]1OC=C[C@@]41O as the molecule, how does the mutagenic call [3] read?
A: active; positive
